In PMC4971055, “Identification and Characterization of the Corazonin Receptor and Possible Physiological Roles of the Corazonin-Signaling Pathway in Rhodnius prolixus” (Frontiers in Neuroscience, 2016):

Legend:
Rhopr-CRZR-β = assay: bioluminescence (calcium mobilizing) functional receptor assay, Rhopr-CRZR-β in CHOK1-aeq cells; type: cell-based, Rhodnius prolixus; details: for bioluminescence response (receptor activation): every 5 s over 15 s
Procedure: (§1) The ORF of the two Rhopr-CRZR variants were amplified and a Kozak translation initiation sequence was introduced at the 5′ end using primers listed in Supplementary Table 2. The resulting product was cloned into pGEM-T Easy vector and subcloned into pIRES2-ZsGreen1 (Clontech, Mountain View, CA, USA).
(§2) Chinese hamster ovary (CHO) cells stably expressing aequorin (CHOK1-aeq) (Paluzzi et al., [2010]) were cultured in complete media (94% Dulbecco's Modified Eagle Medium Nutrient Mixture F12-Ham (DMEM/F12) (Life Technologies Corporation, Carlsbad, CA, USA), 5% heat-inactivated fetal bovine serum (FBS), and 1% penicillin/streptomycin) containing 200 μg/mL Geneticin. The cells were incubated at 37°C in 5% CO2, and then transiently transfected with the expression vector for the receptor transcript variants using X-tremeGENE 9 DNA transfection reagent (Roche Applied Science, Indianapolis, IN, USA) at a ratio of 2:1 (transfection reagent to expression vector) using the manufacturer recommended protocol. Cells were also transiently transfected with an empty expression vector as a negative control.
(§3) The bioluminescence assay was performed 72 h post-transfection. The cells were first harvested with PBS/EDTA solution and suspended in bovine serum albumin BSA media (DMEM/F12 containing 1% BSA and 1% penicillin/streptomycin). The cells were incubated in the dark for 4–5 h at room temperature with 5 μM (final concentration) coelenterazine h (Promega, Madison, WI, USA) and then diluted 10-fold using BSA media. Various peptide concentrations were prepared with BSA media and loaded in triplicates on an opaque 96-well microplate. Cells were loaded into each well using an automated injector unit and luminescence was recorded over 15 s using a Wallac Victor2 plate reader (Perkin Elmer, San Diego, CA, USA). The peptides used were Rhopr-CRZ (pQTFQYSRGWTNamide), Rhopr-AKH (pQLTFSTDWamide), and Rhopr-ACP (pQVTFSRDWNAamide). Wells containing only the BSA media served as a blank control while wells containing 25, 50, and 100 μM ATP served as positive controls. Dose-response curves were obtained by averaging three replica plates and the EC50 values were determined using Prism5 software.

Rhopr-CRZR-α = assay: bioluminescence (calcium mobilizing) functional receptor assay, Rhopr-CRZR-α in CHOK1-aeq cells; type: cell-based, Rhodnius prolixus; details: for bioluminescence response (receptor activation): every 5 s over 15 s
Procedure: as §1, §2, §3

Manduca sexta = test system: Manduca sexta; design: method as in Kim et al., [2004]; details: ref Kim et al., [2004]; cited from earlier work
[1] = test system: dorsal vessel of adult R. prolixus; assay: heartbeat assay in vitro; design: species or system Rhodnius prolixus; details: 10^−8 M Rhopr-CRZ; for increase in heartbeat frequency in vitro: compared to saline, n = 5
Procedure: Adult R. prolixus were anesthetized briefly with CO2 and injected with 2 μL of 2 μg/μL of dsCRZR or dsARG into the thorax using a 5 μL Hamilton syringe. Insects were left for 30 min at room temperature to recover and then kept in an incubator at 28°C on a 16 h: 8 h light/dark cycle. To determine knockdown efficiency, qPCR was performed 3 days post-injection.
Adult R. prolixus injected 3 days earlier with either dsCRZR or dsARG were dissected from the ventral surface under physiological saline (150 mM NaCl, 8.6 mM KCl, 2 mM CaCl2, 4 mM NaHCO3, and 8.5 mM MgCl2, 5 mM HEPES, pH 7.0). The digestive and reproductive systems were removed to expose the dorsal vessel. Electrodes attached to an impedance converter (UFI model 2991, Morro Bay, CA, USA) were positioned on either side of the dorsal vessel between the sixth and fifth abdominal segments. The heartbeat frequency was left to stabilize in 50 μL saline and the frequency of heartbeat measured from the traces recorded on a linear Flat-bed single channel chart recorder. The saline was then exchanged for 50 μL of 10^−8 M CRZ and the heartbeat frequency was again measured. The response to 10^−8 M CRZ was quantified by measuring the increase in heartbeat frequency compared to saline control.

Galleria mellonella = test system: Galleria mellonella; design: method as in Hua et al., [2000]; Hansen et al., [2010]; details: ref Hua et al., [2000], Hansen et al., [2010]; cited from earlier work
Bombyx. mori = test system: Bombyx. mori; design: method as in Hua et al., [2000]; Hansen et al., [2010]; details: ref Hua et al., [2000], Hansen et al., [2010]; cited from earlier work
Periplaneta americana = test system: Periplaneta americana; design: method as in Veenstra, [1989]; details: cockroach Periplaneta americana; ref Veenstra, [1989]; cited from earlier work
5th instar R. prolixus = details: in vitro in 5th instar R. prolixus; ref Patel et al., [2014]; cited from earlier work
Excerpt: The percent knockdown of Rhopr-CRZR transcript after injection of dsCRZR into adult R. prolixus was quantified by qPCR in the dorsal vessel. […] The physiological effects of this decrease in Rhopr-CRZR on heartbeat frequency was studied in vivo and in vitro in adult R. prolixus.

Gryllus bimaculatus = test system: Gryllus bimaculatus; design: method as in Hua et al., [2000]; Hansen et al., [2010]; details: ref Hua et al., [2000], Hansen et al., [2010]; cited from earlier work

| Substance | bioluminescence response (receptor activation) (Rhopr-CRZR-β; Rhopr-CRZR-β, 10^−6 M, n = 3) | bioluminescence response (receptor activation) (Rhopr-CRZR-α; Rhopr-CRZR-α, 10^−6 M, n = 3) | ecdysis behavior (Manduca sexta) | EC50 (Rhopr-CRZR-β; Rhopr-CRZR-β transiently expressed in CHOK1-aeq cells, coelenterazine h luminescence over 15 s, 72 h post-transfection, triplicates, three replica plates averaged) [nM] | time of maximum luminescence (Rhopr-CRZR-β; Rhopr-CRZR-β, during the first 5 s following activation, 10^−6 M, n = 3) [s] | increase in heartbeat frequency in vitro ([1]; dsARG injected adults, vs dsCRZR unpaired t-test p = 0.0096) [beats/min] | heartbeat rate in vitro (in words) ([1]; dsARG injected insects, unpaired t-test p = 0.0096) | increase in heartbeat frequency in vitro ([1]; dsCRZR injected adults, vs dsARG unpaired t-test p = 0.0096) [beats/min] | dark body coloration (Galleria mellonella) | dark body coloration (Bombyx. mori) | heartbeat rate (Periplaneta americana) | heartbeat frequency (5th instar R. prolixus) | dark body coloration (Gryllus bimaculatus) | EC50 (Rhopr-CRZR-α; Rhopr-CRZR-α transiently expressed in CHOK1-aeq cells, coelenterazine h luminescence over 15 s, 72 h post-transfection, triplicates, three replica plates averaged) [nM] | time of maximum luminescence (Rhopr-CRZR-α; Rhopr-CRZR-α, during the first 5 s following activation, 10^−6 M, n = 3) [s] |
| --- | --- | --- | --- | --- | --- | --- | --- | --- | --- | --- | --- | --- | --- | --- | --- |
| pQLTFSTDWamide [Rhopr-AKH, R. prolixus adipokinetic hormone, pQLTFSTDWamide, reference compound] | without effect | without effect |  |  |  |  |  |  |  |  |  |  |  |  |  |
| pQTFQYSRGWTNamide [Rhopr-CRZ, Rhodnius prolixus corazonin neuropeptide, p…amide] |  |  | initiate ecdysis behavior | 1 | ≤ 5 | 7.33 ± 0.8 | significantly increased the heartbeat rate | 2 ± 0.9 | did not have such an effect | did not have such an effect | increases the heartbeat rate | increase heartbeat frequency in a dose-dependent manner | did not have such an effect | 2.7 | ≤ 5 |
| pQVTFSRDWNAamide [Rhopr-ACP, R. prolixus AKH/CRZ-related peptide, p[…]amide, reference compound] | without effect | without effect |  |  |  |  |  |  |  |  |  |  |  |  |  |
